# Reference: patent US9340490B2, “Diagnostic agent for tumor” (SBI PHARMACEUTICALS CO., LTD., priority 2004, dated 2016)
# How the values were obtained:
# [1] = system: MH 134 cell (ascitic liver cancer cell) tumor-bearing mice; conditions: female, C3H/He, mouse, in vivo, po
# Description: A mouse tumor-bearing cell (MH 134 cell: ascitic liver cancer cell) was intraperitoneally administered to mice (C3H/He line, 5-week-old, female) at a dose of 1×10^6 cells, and they were reared for 0 to 14 days. Ten days after the intraperitoneal administration of tumor-bearing cells, 50 μl of 0.12 M δ-aminolevulinic acid hydrochloride, δ-aminolevulinic acid methyl ester hydrochloride, δ-aminolevulinic acid hexyl ester hydrochloride or δ-aminolevulinic acid phosphate was orally administered to the mice to which the tumor-bearing cells had been intraperitoneally administered. From 10 to 20 μl of blood samples were collected from the orally administered mice 0, 0.25, 0.5, 2, 3, 4 or 6 hours thereafter. The thus collected blood was centrifuged at 2000×g for 5 minutes, 300 μl of ethyl acetate/acetic acid (2/1, v/v) was added to 5 μl of the supernatant (plasma), followed by mixing, 300 μl of 0.6 M NaOH solution was further added thereto, followed by mixing, and the NaOH layer was collected. To the remaining organic layer, 300 μl of 0.5 M aqueous hydrochloric acid solution was added, and the aqueous hydrochloric acid solution layer was collected. Fluorescence intensities of the NaOH layer and aqueous hydrochloric acid solution layer were measured (hydrochloric acid layer: excitation wavelength 400 nm, fluorescence wavelength 600 nm, NaOH layer: excitation wavelength 400 nm, fluorescence wavelength 619 nm), and respective concentrations were calculated from the standard solutions. In addition, δ-aminolevulinic acid hydrochloride, δ-aminolevulinic acid methyl ester hydrochloride, δ-aminolevulinic acid hexyl ester hydrochloride or δ-aminolevulinic acid phosphate was also orally administered (0.12 M, 50 μl) to normal mice as the control, and the same treatment was carried out.
# [2] = system: normal mice; assay: Blood protoporphyrin IX and uroporphyrin by fluorescence detection after oral administration, normal mice (Example 1); type: in vivo; conditions: 2 hours after oral 50 μl of 0.12 M
# [3] = system: MH 134 cell tumor-bearing mice; assay: Uroporphyrin and coproporphyrin in feces by HPLC, tumor-bearing mice (Example 4); type: in vivo, mice (C3H/He line); conditions: 2 hours after oral 50 μl of 0.12 M
# Description: To 10 mg in wet weight portion of the thus collected feces, 100 μl of an ethyl acetate-acetic acid mixture liquid (4/1, v/v) was added, the mixture was homogenized and then filtered using a filter paper, 10 μl of the filtrate was measured by HPLC (regarding the analyzing conditions, a fluorescence detector: excitation wavelength 406 nm, fluorescence wavelength 619 nm was used, a solution A: 80% acetonitrile/7% acetic acid/50 mM ammonium acetate mixture liquid and a solution B: 10% acetonitrile/4% acetic acid/50 mM ammonium acetate mixture liquid were used as the eluting solutions and subjected to a linear gradient of A/B (20/80)-A/B (90/10) for 30 minutes and then to the holding with solution A for 20 minutes, ODS-AGtypeCAPCELLPAK, 4.6 mmφ×250 mm, particle diameter 5 μm (manufactured by Shiseido) was used as the column, and the measurement was carried out at a flow rate of 1.0 ml/min and at a temperature of 25° C.), and respective concentrations were calculated from the peak areas of standard solutions.
# [4] = system: normal mice; assay: Uroporphyrin I and III in urine by HPLC, normal mice (Example 3); type: in vivo; conditions: 2 hours after oral 50 μl of 0.12 M
# Description: (§1) The thus collected samples were measured by HPLC (regarding the analyzing conditions, a fluorescence detector: excitation wavelength 406 nm, fluorescence wavelength 619 nm was used, a solution consisting of 12.5% acetonitrile, 1 M ammonium acetate and 0.27 mM EDTA, pH 5.15 (adjusted with acetic acid), was used as the eluting solution, ODS-AGtypeCAPCELLPAK, 4.6 mmφ×250 mm, particle diameter 5 μm (manufactured by Shiseido) was used as the column, and the measurement was carried out at a flow rate of 1.0 ml/min and at a temperature of 25° C.), and respective concentrations were calculated from the standard solutions.
# [5] = system: MH 134 cell tumor-bearing mice; assay: Uroporphyrin I and III in urine by HPLC, tumor-bearing mice (Example 3); type: in vivo, mice (C3H/He line)
# Description: as §1
# [6] = system: MH 134 cell tumor-bearing mice; assay: Uroporphyrin I and III in blood by HPLC, tumor-bearing mice (Example 2); type: in vivo, mice (C3H/He line); conditions: 2 hours after oral 50 μl of 0.12 M
# Description: as §1, with “The samples were” for “The thus collected samples were”, “fluorescence wavelength 610 nm was” for “fluorescence wavelength 619 nm was”, “from the peak areas of standard solutions.” for “from the standard solutions.”
# [7] = system: human liver cancer cell (HepG2 cell) tumor-bearing nude mice; assay: Uroporphyrin and coproporphyrin in urine by HPLC, nude mice bearing human liver cancer cells (Example 5); type: in vivo, nude mice (BALB/cA-nu)
# Description: (§2) The thus collected urine was measured by HPLC (regarding the analyzing conditions, a fluorescence detector: excitation wavelength 406 nm, fluorescence wavelength 619 nm was used,
# (§3) A: 80% acetonitrile/7% acetic acid/50 mM ammonium acetate and
# (§4) B: 10% acetonitrile/4% acetic acid/50 mM ammonium acetate were used as the eluting solutions and subjected to a linear gradient of A/B (20/80)-A/B (90/10) for 13 minutes and then to elution with solution A for 10 minutes, ODS-AGtypeCAPCELLPAK, 4.6 mm×250 mm, particle diameter 5 μm (manufactured by Shiseido) was used as the column, and the measurement was carried out at a flow rate of 1.0 ml/min and at a temperature of 25° C.), and each concentration was calculated from the standard solutions. Further, the urine concentration was corrected by measuring the amount of creatinine (CRE) in urine, and calculating the amount of porphyrin per CRE.
# [8] = system: normal nude mice; assay: Uroporphyrin and coproporphyrin in urine by HPLC, normal nude mice (Example 5); type: in vivo; conditions: 4 hours after oral 50 μl of 0.12 M, corrected per creatinine
# Description: as §2, §3, §4
# [9] = system: human cervical cancer cell (HeLa cell) tumor-bearing nude mice; assay: Uroporphyrin and coproporphyrin in urine by HPLC, nude mice bearing human cervical cancer cells (Example 5); type: in vivo, nude mice (BALB/cA-nu)
# Description: as §2, §3, §4
# [10] = tumor-bearing mice, 2 hours after oral 50 μl of 0.12 M
# [11] = mice given human liver cancer cells, after administration
# [12] = tumor-bearing mice (human liver cancer cell), 4 hours after oral 50 μl of 0.12 M, corrected per creatinine
# [13] = mice given human cervical cancer cells, after administration
# [14] = tumor-bearing mice (human cervical cancer cell), 4 hours after oral 50 μl of 0.12 M, corrected per creatinine
smiles,measurement,setting,value
CCCCCCOC(=O)CCC(=O)CN.Cl [δ-aminolevulinic acid hexyl ester hydrochloride],time after administration at which concentrations of protoporphyrin IX and uroporphyrin became maximum,[1],2 h
same,uroporphyrin in blood of normal mice,[2],hardly detected
Cl.NCC(=O)CCC(=O)O [δ-aminolevulinic acid hydrochloride],"Coproporphyrin in feces, after administration",[3],0.21 pmol
same,"Uroporphyrin in feces, after administration",[3],1.75 pmol
same,Ratio of uroporphyrin I/uroporphyrin III in urine,[4],0.94
same,"Uroporphyrin I in urine, after administration",[4],0.95 ng/µL
same,"Uroporphyrin III in urine, after administration",[4],1.01 ng/µL
same,time after administration at which concentrations of protoporphyrin IX and uroporphyrin became maximum,[1],2 h
same,"amounts of uroporphyrin I and uroporphyrin III in urine, tumor-bearing mice in comparison with normal mice","[5]; after administration, urine 2 hours",about 13 times
same,Ratio of uroporphyrin I/uroporphyrin III in urine,[5]; [10],0.54
same,"Uroporphyrin I in urine, after administration",[5]; [10],11.95 ng/µL
same,"Uroporphyrin III in urine, after administration",[5]; [10],22.28 ng/µL
same,Ratio of uroporphyrin I/uroporphyrin III in blood,[6],0.53
same,"Uroporphyrin I in blood, after administration",[6],0.2 ng/µL
same,"Uroporphyrin III in blood, after administration",[6],0.38 ng/µL
same,uroporphyrin in blood of normal mice,[2],hardly detected
COC(=O)CCC(=O)CN.Cl [δ-aminolevulinic acid methyl ester hydrochloride],time after administration at which concentrations of protoporphyrin IX and uroporphyrin became maximum,[1],2 h
same,uroporphyrin in blood of normal mice,[2],hardly detected
NCC(=O)CCC(=O)O.O=P(O)(O)O [δ-aminolevulinic acid phosphate],amount of coproporphyrin in urine relative to normal mice,[7]; [11],about 1.5 times
same,amount of uroporphyrin in urine relative to normal mice,[7]; [11],about 15 times
same,"Coproporphyrin in urine, after administration",[7]; [12],1.44 μmol/g-CRE
same,"Uroporphyrin in urine, after administration",[7]; [12],2.47 μmol/g-CRE
same,time after administration at which concentrations of protoporphyrin IX and uroporphyrin became maximum,[1],2 h
same,"Coproporphyrin in urine, after administration",[8],0.99 μmol/g-CRE
same,"Uroporphyrin in urine, after administration",[8],0.16 μmol/g-CRE
same,amount of coproporphyrin in urine relative to normal mice,[9]; [13],about 2.7 times
same,amount of uroporphyrin in urine relative to normal mice,[9]; [13],about 94 times
same,"Coproporphyrin in urine, after administration",[9]; [14],2.66 μmol/g-CRE
same,"Uroporphyrin in urine, after administration",[9]; [14],15.1 μmol/g-CRE
same,uroporphyrin in blood of normal mice,[2],hardly detected
